Laboratory results published in article PMC7037393, “Synthesis, Structural, and Cytotoxic Properties of New Water-Soluble Copper(II) Complexes Based on 2,9-Dimethyl-1,10-Phenanthroline and Their One Derivative Containing 1,3,5-Triaza-7-Phosphaadamantane-7-Oxide” (Molecules, 2020).

Tests used:
[1] = test system: LoVo (human colorectal adenocarcinoma); assay: Cytotoxicity on LoVo cells, quantitative suspension test according to EN 14476; format: cell-based; conditions: observed 4 days, aqua media
Experimental: (§1) Normal human dermal fibroblasts (NHDF) (PromoCell, C-12302) were used as normal cells and LoVo (human colorectal adenocarcinoma, ATCC® CCL-229™), A549 (human lung carcinoma, ATCC, No. CCL-185 TM), MCF-7 (human breast adenocarcinoma, ATCC, No. HTB-22^TM) and HeLa (human cervix carcinoma, ATCC, No. CCL-2 TM) were used as cancer cells. They were cultured in DMEM, DMEM–F12 or EMEM (Lonza, CA, USA). Media were supplemented with 10% FBS (Biological Industries, Kibbutz Beit-Haemek, Israel), 2 mM L-glutamine (Biological Industries, Israel), 100 U/mL of penicillin and 100 µg/mL of streptomycin (Sigma, Neustadt an der Weinstrasse, Germany).
(§2) The 100 μL of suspension of NHDF, A549, HeLa, LoVo, and MCF7 cells at a density of 4 × 10^4 cells mL^−1 were incubated in a 96-well polystyrene plate (NUNC, Denmark) for 24 h. Product test solutions were prepared in DMEM, DMEM–F12, or EMEM supplemented with additional 2% FBS and 2 mM L-glutamine. Solutions of the reagents at concentrations from 460 (for 1), 454 (2), […] (3), 1242 (Cu(NO3)2), 1732 (PTA=O), and 1440 µM (dmphen) to 4.60 × 10^−6, 4.54 × 10^−6, 4.69 × 10^−6, 1.24 × 10^−5, 1.73 × 10^−5, and 1.44 × 10^−5 µM, respectively, were prepared and transferred (100 μL) into cell culture units (wells of microtiter plates) containing monolayer of cells. Eight units were inoculated with each dilution. Plates were incubated in 37 °C, 5% CO2 and observed daily for 4 days for the development of cytotoxic effect, using an inverted microscope (Olympus Corp., Hamburg, Germany, Axio Observer, Carl Zeiss MicroImaging GmbH). Then the wells were washed in phosphate buffered saline (PBS) and stained using DAPI (4′,6-diamidino-2-phenylindole) and propidium iodide (Merck, Darmstadt, Germany). The study used the fact that DAPI is able to be combined with cellular DNA, permeate through the membrane of cell, rapidly enter the nucleus of living cells and bind with DNA to form a DAPI-DNA complex. […] In cell culture these are cells that are apoptotic or damaged by any physical or chemical agent. Therefore, if these two fluorochrome are given at the same time, DAPI will get to healthy cells faster, while propidium iodide will stain dead or dying cells. The calculation of the ratio of cells counted on a specific area, allows to determine the potency of a substance in inhibiting a specific biological function (IC50).

[2] = test system: HeLa (human cervix carcinoma); assay: Cytotoxicity on HeLa cells, quantitative suspension test according to EN 14476; format: cell-based; conditions: observed 4 days, aqua media
Experimental: as §1, §2

[3] = test system: A549 (human lung carcinoma); assay: Cytotoxicity on A549 cells, quantitative suspension test according to EN 14476; format: cell-based; conditions: observed 4 days, aqua media
Experimental: as §1, §2

NHDF cells = assay: Cytotoxicity on normal human dermal fibroblasts, quantitative suspension test according to EN 14476 (DAPI/propidium iodide); format: cell-based; conditions: observed 4 days, aqua media
Experimental: as §1, §2

[4] = biological target: T1, human apo-transferrin (apo-Tf) (Homo sapiens, UniProt P02787); assay: Circular dichroism of apo-transferrin, alpha-helix content; format: binding; conditions: free protein 19.80%
T1 construct: purchased Sigma-Aldrich
T1 sequence (P02787 20-698): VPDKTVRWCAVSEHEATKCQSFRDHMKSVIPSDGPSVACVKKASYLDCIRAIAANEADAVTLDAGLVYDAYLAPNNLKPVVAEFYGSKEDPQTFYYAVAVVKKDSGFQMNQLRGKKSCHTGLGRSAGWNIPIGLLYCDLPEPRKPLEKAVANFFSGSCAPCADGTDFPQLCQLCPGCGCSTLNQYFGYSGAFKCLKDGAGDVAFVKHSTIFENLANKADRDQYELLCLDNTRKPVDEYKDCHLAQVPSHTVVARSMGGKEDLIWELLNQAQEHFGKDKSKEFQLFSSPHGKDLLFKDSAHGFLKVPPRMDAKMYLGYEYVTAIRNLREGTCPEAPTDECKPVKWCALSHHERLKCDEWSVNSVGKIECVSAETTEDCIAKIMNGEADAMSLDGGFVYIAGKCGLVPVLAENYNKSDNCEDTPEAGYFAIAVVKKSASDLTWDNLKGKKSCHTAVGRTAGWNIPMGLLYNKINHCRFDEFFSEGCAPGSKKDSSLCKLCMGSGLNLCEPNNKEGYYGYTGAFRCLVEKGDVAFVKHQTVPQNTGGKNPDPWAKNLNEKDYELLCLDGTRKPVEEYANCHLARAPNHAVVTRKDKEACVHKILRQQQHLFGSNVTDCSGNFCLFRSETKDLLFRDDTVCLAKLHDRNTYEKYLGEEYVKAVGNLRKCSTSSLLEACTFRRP
Experimental: Circular dichroism (CD) measurements in the far UV region were performed to determine the effect of copper complexes on the apo-transferrin secondary structure. A characteristic for α-helical structure of protein negative bands was visible in the CD spectrum at wavelengths of 210 and 220 nm (Figure 7) and were assigned n-π* transitions peptide bonds. […] The α-helix content the free protein was equal to 19.80%.
High purity apo-transferrin (≥ 98%, Sigma-Aldrich, Steinheim, North Rhine-Westphalia, Germany) was used without prior purification. The stock solutions of the complexes were prepared in demineralized water (1 and 2) or ethanol (3). The apo-Tf was dissolved in PBS (pH 7.40). […] Samples were incubated at 300 and 310 K for 5 min. The apo-Tf concentration was determined using ε (280 nm) = 11.2 mM^−1 × cm^−1.
Circular dichroism measurements were carried out on a Jasco J-715 spectropolarimeter (Tokyo, Japan) in the range of 190–250 nm using 0.1-cm cuvettes. The α-helical content of the protein was calculated from the Equations (9) and (10):(9) MRE209= ObservedCDmdeg/Cp· n· l ·10 (10) α−helix %= −MRE209−4000/33000−4000×100 where MRE is the mean residue ellipticity, Cp is the molar concentration of the protein, n the number of amino acid residues (679), and l is the path length (0.1 cm).

[5] = Solubility in water at 25 °C, stepwise water addition; format: physicochemical; conditions: H2O
Experimental: The copper complexes 1–3 were air stable in the solid state and at least for several days in H2O solutions. In a general procedure, the complex was dissolved in H2O in air atmosphere. […] Also UV-Vis spectra of water solutions of 1-3 confirm their stability in several days. […] After each addition of an amount of water (100 µL), the mixture was shaken for several minutes and then visually checked for any undissolved parts of the sample.

[6] = molar ratio apo-Tf:complex 1:20

Structure (SMILES) | IC50 [1] [nM] | IC50 [2] [nM] | IC50 [3] [nM] | IC50 (NHDF cells) [nM] | α-helix content of apo-Tf upon binding [4, 6] [%] | solubility in water S25 °C [5] | α-helix content of apo-Tf upon binding ([4]; molar ratio apo-Tf:complex 1:10) [%]
Cc1ccc2ccc3ccc(C)nc3c2n1.F[P-](F)(F)(F)(F)F.O=P12CN3CN(CN(C3)C1)C2.O=[N+]([O-])[O-].[Cu+2] [Complex 1, [Cu(NO3)(PTA=O)(dmphen)][PF6]] | 570 ± 80 | 1120 ± 160 | 290 ± 10 | 570 ± 80 | 19.07 | 3.8 mg mL^−1 and ≈ 3.8 mg mL^−1 | 
Cc1ccc2ccc3ccc(C)nc3c2n1.Cc1ccc2ccc3ccc(C)nc3c2n1.F[P-](F)(F)(F)(F)F.[Cl-].[Cu+2] [Complex 2, [Cu(Cl)(dmphen)2][PF6]] | 1130 ± 170 | 1130 ± 170 | 280 ± 40 | 230 ± 30 | 18.00 | 2.5 mg mL^−1 and ≈ 2.5 mg mL^−1 | 
CC#N.Cc1ccc2ccc3ccc(C)nc3c2n1.O=[N+]([O-])[O-].O=[N+]([O-])[O-].[Cu+2] [Complex 3, [Cu(NO3)2(dmphen)]∙MeCN] | 1720 ± 250 | 430 ± 60 | 430 ± 60 | 1720 ± 250 | 8.16 | 2.9 mg mL^−1 and ≈ 2.9 mg mL^−1 | 17.05
